Data as given in patent publication US20070031328A1, “Radiolabeled-pegylation of ligands for use as imaging agents” (priority 2005, published 2007).

Columns and labels:
[1] = Biodistribution studies in normal mice; type: in vivo, male ICR mice; details: tail vein injection, avg of 3 mice ± SD
Protocol: While under isoflurane anesthesia, 0.15 mL of a saline solution containing the F-18 tracers (10-20 uCi) was injected directly into the lateral tail vein of male ICR mice. The mice (n=3 for each time point) were sacrificed by cervical dislocation at 2, 30, 60 and 120 minutes post-injection. The organs of interest were removed, weighed and assayed for radioactivity content with an automatic gamma counter. The percentage dose per organ was calculated by a comparison of the tissue counts to suitably diluted aliquots of the injected material. Total activities of blood and bone were calculated under the assumption that they were 7% and 14% of the body weight, respectively. The % dose/g of samples was calculated by comparing the sample counts with the count of the diluted initial dose.

[2] = target: T1, Ab aggregates of AD brain homogenates (Homo sapiens, UniProt P05067); assay: Inhibition of [125I]IMPY binding to Aβ aggregates of AD brain homogenates; design: species or system human (AD patients)
T1 construct: to Ab aggregates of AD brain homogenates; from tissue; host or cells: post-mortem grey matter of AD patients, homogenised in PBS
Protocol: Postmortem brain tissues were obtained from AD patients at autopsy, and neuropathological diagnosis was confirmed by current criteria (NIA-Reagan Institute Consensus Group, 1997). Homogenates were then prepared from dissected gray matters from AD patients in phosphate buffered saline (PBS, pH 7.4) at the concentration of approximately 100 mg wet tissue/ml (motor-driven glass homogenizer with setting of 6 for 30 sec).
(§1) Binding assays were carried out in 12×75 mm borosilicate glass tubes. […] The mixture was incubated at 37° C. for 2 hr and the bound and the free radioactivity were separated by vacuum filtration through Whatman GF/B filters using a Brandel M-24R cell harvester followed by 2×3 ml washes of PBS at room temperature. Filters containing the bound ^125I ligand were assayed for radioactivity content in a gamma counter (Packard 5000) with 70% counting efficiency.
as §1, with “efficiency. […] The results of inhibition experiments were subjected to nonlinear regression analysis using EBDA by which Ki values were calculated.” for “efficiency.”

T1 sequence (P05067 672-713 limits assumed): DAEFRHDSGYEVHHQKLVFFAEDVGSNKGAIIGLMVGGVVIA

Compound: CNc1ccc(-c2nc3ccc(OCCOCC[18F])cc3s2)cc1 [[^18F]5a]
- Blood biodistribution ([1]; 2 min): 3.37 ± 0.46 % dose/g
- Blood biodistribution ([1]; 30 min): 3.60 ± 0.13 % dose/g
- Blood biodistribution ([1]; 1 hr): 4.55 ± 0.40 % dose/g
- Blood biodistribution ([1]; 2 hr): 4.38 ± 0.14 % dose/g
- Bone biodistribution ([1]; 2 min): 1.69 ± 0.21 % dose/g
- Bone biodistribution ([1]; 30 min): 2.28 ± 0.20 % dose/g
- Bone biodistribution ([1]; 1 hr): 3.17 ± 0.39 % dose/g
- Bone biodistribution ([1]; 2 hr): 6.35 ± 1.32 % dose/g
- Brain biodistribution ([1]; 2 min): 10.27 ± 1.30 % dose/g
- Brain biodistribution ([1]; 30 min): 4.59 ± 0.47 % dose/g
- Brain biodistribution ([1]; 1 hr): 3.94 ± 0.04 % dose/g
- Brain biodistribution ([1]; 2 hr): 3.86 ± 0.35 % dose/g
- Heart biodistribution ([1]; 2 min): 8.32 ± 0.37 % dose/g
- Heart biodistribution ([1]; 30 min): 3.49 ± 0.27 % dose/g
- Heart biodistribution ([1]; 1 hr): 3.81 ± 0.25 % dose/g
- Heart biodistribution ([1]; 2 hr): 3.59 ± 0.03 % dose/g
- Kidney biodistribution ([1]; 2 min): 13.02 ± 1.04 % dose/g
- Kidney biodistribution ([1]; 30 min): 4.54 ± 0.62 % dose/g
- Kidney biodistribution ([1]; 1 hr): 3.98 ± 0.24 % dose/g
- Kidney biodistribution ([1]; 2 hr): 3.18 ± 0.16 % dose/g
- Liver biodistribution ([1]; 2 min): 19.02 ± 1.06 % dose/g
- Liver biodistribution ([1]; 30 min): 7.98 ± 0.60 % dose/g
- Liver biodistribution ([1]; 1 hr): 6.35 ± 0.46 % dose/g
- Liver biodistribution ([1]; 2 hr): 5.05 ± 0.43 % dose/g
- Lung biodistribution ([1]; 2 min): 7.79 ± 0.34 % dose/g
- Lung biodistribution ([1]; 30 min): 3.91 ± 0.28 % dose/g
- Lung biodistribution ([1]; 1 hr): 3.84 ± 0.55 % dose/g
- Lung biodistribution ([1]; 2 hr): 3.63 ± 0.15 % dose/g
- Muscle biodistribution ([1]; 2 min): 0.82 ± 0.12 % dose/g
- Muscle biodistribution ([1]; 30 min): 2.83 ± 0.22 % dose/g
- Muscle biodistribution ([1]; 1 hr): 2.76 ± 0.17 % dose/g
- Muscle biodistribution ([1]; 2 hr): 2.36 ± 0.11 % dose/g
- Skin biodistribution ([1]; 2 min): 1.08 ± 0.22 % dose/g
- Skin biodistribution ([1]; 30 min): 3.14 ± 0.22 % dose/g
- Skin biodistribution ([1]; 1 hr): 3.15 ± 0.28 % dose/g
- Skin biodistribution ([1]; 2 hr): 2.62 ± 0.16 % dose/g
- Spleen biodistribution ([1]; 2 min): 6.92 ± 0.79 % dose/g
- Spleen biodistribution ([1]; 30 min): 3.93 ± 0.29 % dose/g
- Spleen biodistribution ([1]; 1 hr): 3.87 ± 0.61 % dose/g
- Spleen biodistribution ([1]; 2 hr): 3.32 ± 0.16 % dose/g

Compound: CN(C)c1ccc(-c2cn3cc(OCCOCCOCCOCCOCCOCCF)ccc3n2)cc1 [Compound 12d, 6-(2-fluoroethoxy-ethoxy-ethoxy-ethoxy-ethoxy-ethoxy)-2-(4-dimethylamino-)phenyl-imidazo[1,2-a]pyridine]
- Ki [2]: 96 ± 14 nM

Compound: CNc1ccc(-c2nc3ccc(OCCOCCOCCOCCOCCOCCOCCOCCF)cc3s2)cc1 [Compound 5d, 2-[4′-(methylamino)phenyl]-6-[2-(2-{2-[2-(2-{2-[2-(2-fluoroethoxy)-ethoxy]ethoxy}ethoxy)ethoxy]ethoxy}ethoxy)ethoxy]benzothiazole]
- Ki [2]: 9 ± 1.8 nM

Compound: CN(C)c1ccc(-c2cn3cc(OCCOCCOCCOCCOCCOCCOCCOCCF)ccc3n2)cc1 [Compound 12e, 6-(2-fluoroethoxy-ethoxy-ethoxy-ethoxy-ethoxy-ethoxy-ethoxy-ethoxy)-2-(4-dimethylamino-) phenyl-imidazo[1,2-a]pyridine]
- Ki [2]: 387 ± 12 nM

Compound: CNc1ccc(-c2nc3ccc(OCCOCCOCC[18F])cc3s2)cc1 [[^18F]5b]
- Blood biodistribution ([1]; 2 min): 6.29 ± 1.19 % dose/g
- Blood biodistribution ([1]; 30 min): 3.41 ± 0.07 % dose/g
- Blood biodistribution ([1]; 1 hr): 3.91 ± 0.23 % dose/g
- Blood biodistribution ([1]; 2 hr): 4.04 ± 0.45 % dose/g
- Bone biodistribution ([1]; 2 min): 2.13 ± 0.16 % dose/g
- Bone biodistribution ([1]; 30 min): 1.48 ± 0.03 % dose/g
- Bone biodistribution ([1]; 1 hr): 1.82 ± 0.04 % dose/g
- Bone biodistribution ([1]; 2 hr): 2.41 ± 0.28 % dose/g
- Brain biodistribution ([1]; 2 min): 5.53 ± 0.56 % dose/g
- Brain biodistribution ([1]; 30 min): 2.33 ± 0.15 % dose/g
- Brain biodistribution ([1]; 1 hr): 2.18 ± 0.09 % dose/g
- Brain biodistribution ([1]; 2 hr): 1.96 ± 0.13 % dose/g
- Heart biodistribution ([1]; 2 min): 6.26 ± 1.12 % dose/g
- Heart biodistribution ([1]; 30 min): 3.22 ± 0.33 % dose/g
- Heart biodistribution ([1]; 1 hr): 3.06 ± 0.15 % dose/g
- Heart biodistribution ([1]; 2 hr): 2.50 ± 0.09 % dose/g
- Kidney biodistribution ([1]; 2 min): 9.02 ± 0.77 % dose/g
- Kidney biodistribution ([1]; 30 min): 5.27 ± 0.77 % dose/g
- Kidney biodistribution ([1]; 1 hr): 3.97 ± 0.25 % dose/g
- Kidney biodistribution ([1]; 2 hr): 2.97 ± 0.07 % dose/g
- Liver biodistribution ([1]; 2 min): 21.84 ± 1.56 % dose/g
- Liver biodistribution ([1]; 30 min): 13.75 ± 1.88 % dose/g
- Liver biodistribution ([1]; 1 hr): 11.22 ± 0.82 % dose/g
- Liver biodistribution ([1]; 2 hr): 9.13 ± 1.11 % dose/g
- Lung biodistribution ([1]; 2 min): 7.35 ± 1.50 % dose/g
- Lung biodistribution ([1]; 30 min): 3.94 ± 0.29 % dose/g
- Lung biodistribution ([1]; 1 hr): 3.63 ± 0.25 % dose/g
- Lung biodistribution ([1]; 2 hr): 3.24 ± 0.10 % dose/g
- Muscle biodistribution ([1]; 2 min): 1.40 ± 0.11 % dose/g
- Muscle biodistribution ([1]; 30 min): 1.92 ± 0.34 % dose/g
- Muscle biodistribution ([1]; 1 hr): 1.58 ± 0.13 % dose/g
- Muscle biodistribution ([1]; 2 hr): 1.38 ± 0.11 % dose/g
- Skin biodistribution ([1]; 2 min): 2.09 ± 0.22 % dose/g
- Skin biodistribution ([1]; 30 min): 2.27 ± 0.17 % dose/g
- Skin biodistribution ([1]; 1 hr): 1.92 ± 0.13 % dose/g
- Skin biodistribution ([1]; 2 hr): 1.57 ± 0.06 % dose/g
- Spleen biodistribution ([1]; 2 min): 5.24 ± 0.67 % dose/g
- Spleen biodistribution ([1]; 30 min): 2.66 ± 0.14 % dose/g
- Spleen biodistribution ([1]; 1 hr): 2.84 ± 0.13 % dose/g
- Spleen biodistribution ([1]; 2 hr): 2.46 ± 0.05 % dose/g

Compound: CNc1ccc(-c2nc3ccc(OCCOCCOCCOCCOCCOCC[18F])cc3s2)cc1 [[^18F]5c]
- Blood biodistribution ([1]; 2 min): 3.54 ± 0.12 % dose/g
- Blood biodistribution ([1]; 30 min): 2.52 ± 0.29 % dose/g
- Blood biodistribution ([1]; 1 hr): 2.46 ± 0.29 % dose/g
- Blood biodistribution ([1]; 2 hr): 1.54 ± 0.19 % dose/g
- Bone biodistribution ([1]; 2 min): 1.68 ± 0.60 % dose/g
- Bone biodistribution ([1]; 30 min): 1.20 ± 0.29 % dose/g
- Bone biodistribution ([1]; 1 hr): 1.68 ± 0.17 % dose/g
- Bone biodistribution ([1]; 2 hr): 2.31 ± 0.37 % dose/g
- Brain biodistribution ([1]; 2 min): 2.57 ± 0.12 % dose/g
- Brain biodistribution ([1]; 30 min): 1.69 ± 0.23 % dose/g
- Brain biodistribution ([1]; 1 hr): 1.80 ± 0.25 % dose/g
- Brain biodistribution ([1]; 2 hr): 1.29 ± 0.17 % dose/g
- Heart biodistribution ([1]; 2 min): 9.37 ± 0.18 % dose/g
- Heart biodistribution ([1]; 30 min): 2.11 ± 0.27 % dose/g
- Heart biodistribution ([1]; 1 hr): 1.82 ± 0.28 % dose/g
- Heart biodistribution ([1]; 2 hr): 1.19 ± 0.15 % dose/g
- Kidney biodistribution ([1]; 2 min): 23.00 ± 0.89 % dose/g
- Kidney biodistribution ([1]; 30 min): 5.01 ± 0.84 % dose/g
- Kidney biodistribution ([1]; 1 hr): 3.50 ± 0.86 % dose/g
- Kidney biodistribution ([1]; 2 hr): 1.27 ± 0.08 % dose/g
- Liver biodistribution ([1]; 2 min): 12.43 ± 1.11 % dose/g
- Liver biodistribution ([1]; 30 min): 3.94 ± 0.29 % dose/g
- Liver biodistribution ([1]; 1 hr): 2.86 ± 0.38 % dose/g
- Liver biodistribution ([1]; 2 hr): 1.67 ± 0.32 % dose/g
- Lung biodistribution ([1]; 2 min): 4.68 ± 0.27 % dose/g
- Lung biodistribution ([1]; 30 min): 2.41 ± 0.37 % dose/g
- Lung biodistribution ([1]; 1 hr): 2.08 ± 0.32 % dose/g
- Lung biodistribution ([1]; 2 hr): 1.24 ± 0.16 % dose/g
- Muscle biodistribution ([1]; 2 min): 1.60 ± 0.98 % dose/g
- Muscle biodistribution ([1]; 30 min): 1.87 ± 0.38 % dose/g
- Muscle biodistribution ([1]; 1 hr): 1.52 ± 0.24 % dose/g
- Muscle biodistribution ([1]; 2 hr): 0.93 ± 0.07 % dose/g
- Skin biodistribution ([1]; 2 min): 0.95 ± 0.12 % dose/g
- Skin biodistribution ([1]; 30 min): 2.14 ± 1.03 % dose/g
- Skin biodistribution ([1]; 1 hr): 1.42 ± 0.14 % dose/g
- Skin biodistribution ([1]; 2 hr): 0.91 ± 0.10 % dose/g
- Spleen biodistribution ([1]; 2 min): 4.74 ± 0.23 % dose/g
- Spleen biodistribution ([1]; 30 min): 2.05 ± 0.18 % dose/g
- Spleen biodistribution ([1]; 1 hr): 1.87 ± 0.26 % dose/g
- Spleen biodistribution ([1]; 2 hr): 1.13 ± 0.16 % dose/g
